Laboratory results as given in patent US9133186B2, “Hetero ring-fused imidazole derivative having AMPK activating effect” (Shionogi & Co., Ltd., priority 2010, dated 2015).

Columns and labels:
[1] = biological target: T1, Human AMPK α2β2γ1 (Homo sapiens, UniProt O43741+P54646); assay: AMPK activator evaluation, Test Example 2 (CaMKK2-phosphorylated enzyme, mobility shift); assay type: biochemical; settings: human AMPK α2β2γ1 phosphorylated with CaMKK2, control = 100%; for Emax: read-out: Emax (maximum rate of increase in activity within the measurement range)
T1 construct: The full length cDNAs of human AMPK P2 (NM_005399.3) and human AMPK α2 (NM_006252.3); 6×His (N); made in house; host or cells: Escherichia coli BL21 CodonPlus (DE3)-RIL
Description: The full length cDNAs of human AMPK P2 (NM_005399.3) and human AMPK α2 (NM_006252.3) were inserted into the MCS1 and MCS2 of the pETDuet-1 vector to prepare a human AMPK β2 and human AMPK α2 (6×His tag at the 5′ terminus) expressing plasmid. The plasmid was contransfected with an expression plasmid, in which the full length cDNA of human AMPK γ1 (NM_002733.3) had been inserted into pET28b(+), into BL21 CodonPlus (DE3)-RIL to obtain an expression strain. The expression strain was cultured in TB medium, followed by induction with 0.5 mM IPTG, and cultured at 25° C. for 3 hours and then harvested. After ultrasonication, supernatant was collected and applied to Histrap column (GE) and RESOUECE Q 6 ml column (GE) to prepare 12.5 mg of purified sample containing three types of subunit from 1.8 L of broth.
An expression vector, in which the full length cDNA of human CAMKK β (NM_172226.1) had been inserted into pGEX-6P-3, was transfected into BL21 Star (DE3). The expression strain was cultured in TB medium, followed by induction with 0.5 mM IPTG, and cultured at 25° C. for 3 hours and then harvested. After ultrasonication, supernatant was collected and applied to GSTrap FF column (GE) to prepare 14 mg of GST-fused CAMKK β from 720 ml of broth.
Thus, phosphorylation treatment was carried out as pretreatment.
Human AMPK α2β2γ1 in an amount to give a conversion rate of approximately 10% by reaction for 2 hours, and CaMKK2 in an amount capable of sufficiently imparting activity to AMPK for one hour were mixed in a buffer solution consisting of a 50 mM HEPES-NaOH buffer solution (pH 7.0), 100 mM NaCl, 5 mM magnesium chloride, 0.1% bovine serum albumin, 0.2 mM sodium orthovanadate(V), 1 mM ethylene glycol-bis(2-aminoethyl ether)-N,N,N′,N′-tetraacetic acid (EGTA), 5 mM disodium β-glycerophosphate, 1 mM dithiothreitol and 0.2 mM ATP, and the obtained liquid was left to stand at 25° C. for 1 to 1.5 hours to sufficiently phosphorylate AMPK.
After that, to the enzyme liquid, which had been subjected to phosphorylation treatment, a compound dissolved in DMSO was added so as to have a 1% DMSO concentration. The obtained liquid was left to stand for 10 minutes.
To the liquid, a substrate solution consisting of a 50 mM HEPES-NaOH buffer solution (pH 7.0), 100 mM NaCl, 10 mM magnesium chloride, 0.1% bovine serum albumin, 0.2 mM sodium orthovanadate(V), 1 mM ethylene glycol-bis(2-aminoethyl ether)-N,N,N′,N′-tetraacetic acid (EGTA), 5 mM disodium glycerophosphate, 2 mM dithiothreitol, 0.4 mM ATP and 3 μM FL-Peptide 7 (manufactured by Caliper Life Sciences, Inc.) was added in equal amount (10 μl in total). The obtained liquid was allowed to react at 25° C. for 2 hours, and 10 μl of 20 mM EDTA was then added thereto to stop the reaction.
To detect phosphorylated fluorescent substrates, the reaction liquid was applied to a measuring device, LabChip EZ Reader II manufactured by Caliper Life Science, Inc., for detecting fluorescence by using differences in mobility due to differences in charge. The setting conditions for the device were pressure, −1.5 PSI; upstream voltage, −2250 V; downstream voltage, −400 V; post sample buffer sip time, 40 seconds; final delay, 120 seconds; and peak order, Product First.
A conversion rate was calculated from the peak heights of the resulting substrate and product. The conversion rate when not containing a compound was used as a control, and a concentration dependent curve was made by plotting the rate of increase in activity to the control at each concentration of a compound.

[2] = biological target: T2, human AMPK α1β1γ1 enzyme (Homo sapiens, UniProt Q13131+Q9Y478); assay: AMPK activator evaluation, Test Example 1 (mobility shift, FL-Peptide 7); assay type: biochemical; settings: human AMPK α1β1γ1, control without compound = 100%; for Emax: read-out: Emax (maximum rate of increase in activity within the measurement range)
T2 construct: purchased Carna Biosciences, Inc
How it was run: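 Human AMPK α1β1γ1, dosed to give ~10% conversion in 2 h, was preincubated 10 min with compound at 1% DMSO in HEPES pH 7.0 with 10 mM MgCl2. An equal volume of substrate solution (0.4 mM ATP, 3 μM FL-Peptide 7) was added and the reaction ran 2 h at 25 °C before EDTA stop. Phosphorylated peptide was detected by microfluidic mobility-shift fluorescence.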

T1 sequence (P54646 whole entry): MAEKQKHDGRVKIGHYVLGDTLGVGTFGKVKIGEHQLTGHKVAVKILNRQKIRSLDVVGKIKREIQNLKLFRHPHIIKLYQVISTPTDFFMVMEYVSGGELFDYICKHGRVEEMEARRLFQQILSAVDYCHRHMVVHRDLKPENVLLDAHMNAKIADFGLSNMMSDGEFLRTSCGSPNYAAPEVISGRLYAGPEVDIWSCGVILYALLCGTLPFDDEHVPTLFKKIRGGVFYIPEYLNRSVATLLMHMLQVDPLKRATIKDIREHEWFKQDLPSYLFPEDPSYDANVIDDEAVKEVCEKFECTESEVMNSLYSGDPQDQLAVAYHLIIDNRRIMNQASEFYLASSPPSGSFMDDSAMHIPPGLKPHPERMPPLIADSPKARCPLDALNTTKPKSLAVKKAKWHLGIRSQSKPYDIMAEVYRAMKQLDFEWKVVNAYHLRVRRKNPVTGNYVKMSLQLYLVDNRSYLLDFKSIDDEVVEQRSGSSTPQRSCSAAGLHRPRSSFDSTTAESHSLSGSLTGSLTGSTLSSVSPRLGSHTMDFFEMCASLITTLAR
T1 sequence (O43741 whole entry): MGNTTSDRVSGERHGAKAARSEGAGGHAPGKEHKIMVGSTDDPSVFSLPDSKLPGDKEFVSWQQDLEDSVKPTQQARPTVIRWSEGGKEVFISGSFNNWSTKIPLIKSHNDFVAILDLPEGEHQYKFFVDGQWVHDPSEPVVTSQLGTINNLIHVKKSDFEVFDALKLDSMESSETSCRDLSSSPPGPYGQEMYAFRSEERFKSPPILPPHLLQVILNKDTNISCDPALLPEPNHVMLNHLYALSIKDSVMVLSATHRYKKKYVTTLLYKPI
T1 sequence (P54619 whole entry partner): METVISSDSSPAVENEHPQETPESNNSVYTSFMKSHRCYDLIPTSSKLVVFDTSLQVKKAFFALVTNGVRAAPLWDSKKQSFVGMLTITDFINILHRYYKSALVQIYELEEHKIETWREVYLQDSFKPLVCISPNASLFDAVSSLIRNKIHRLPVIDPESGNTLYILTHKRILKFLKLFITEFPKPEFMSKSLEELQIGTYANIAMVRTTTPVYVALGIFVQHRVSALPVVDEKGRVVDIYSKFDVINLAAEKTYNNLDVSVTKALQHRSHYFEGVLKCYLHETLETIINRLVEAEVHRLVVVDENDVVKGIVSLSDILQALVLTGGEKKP
T2 sequence (Q13131 10-559 limits assumed): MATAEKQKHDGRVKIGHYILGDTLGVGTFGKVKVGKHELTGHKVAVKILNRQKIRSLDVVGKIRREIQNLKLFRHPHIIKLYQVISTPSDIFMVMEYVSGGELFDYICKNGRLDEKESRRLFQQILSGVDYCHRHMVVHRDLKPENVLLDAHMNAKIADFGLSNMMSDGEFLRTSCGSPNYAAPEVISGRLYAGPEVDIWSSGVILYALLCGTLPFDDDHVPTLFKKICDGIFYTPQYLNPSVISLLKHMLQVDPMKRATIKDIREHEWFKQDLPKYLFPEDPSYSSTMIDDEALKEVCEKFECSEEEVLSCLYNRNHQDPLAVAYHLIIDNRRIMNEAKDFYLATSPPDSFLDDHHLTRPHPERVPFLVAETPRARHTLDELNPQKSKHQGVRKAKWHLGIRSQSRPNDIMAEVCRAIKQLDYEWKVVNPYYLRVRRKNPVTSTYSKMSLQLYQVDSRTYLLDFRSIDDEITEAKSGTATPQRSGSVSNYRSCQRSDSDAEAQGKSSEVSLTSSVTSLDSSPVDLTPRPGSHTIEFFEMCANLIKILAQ
T2 sequence (Q9Y478 whole entry): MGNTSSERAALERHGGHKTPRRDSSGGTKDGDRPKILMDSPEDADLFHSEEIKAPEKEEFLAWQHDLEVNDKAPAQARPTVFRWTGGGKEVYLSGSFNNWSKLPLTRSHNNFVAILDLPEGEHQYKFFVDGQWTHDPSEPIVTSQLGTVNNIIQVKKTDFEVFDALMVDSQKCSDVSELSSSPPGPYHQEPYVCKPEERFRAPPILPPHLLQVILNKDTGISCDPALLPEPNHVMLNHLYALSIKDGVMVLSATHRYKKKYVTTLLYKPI
T2 sequence (P54619 whole entry partner): as the sequence (P54619 whole entry partner) above

Row | Structure (SMILES) | EC150 (compound concentration showing 150% relative to the control) [1] [nM] | Emax [1] [%] | EC150 (compound concentration showing 150% relative to the control) [2] [nM] | Emax [2] [%]
1 | Cc1ccc(Oc2nc3nc(-c4ccc5c(ccn5C)c4)c(Cl)cc3[nH]2)cc1C(=O)O [Compound A-2] | 74 | 406 | 7 | 408
2 | O=C(O)c1ccc(Oc2nc3nc(-c4ccc(N5CCOCC5)cc4)c(Cl)cc3[nH]2)cc1 [Compound B-101] | 1300 | 212 | 120 | 269
3 | Cc1ccc(C(=O)O)cc1Oc1nc2nc(-c3ccc(N4CCOCC4)cc3)c(Cl)cc2[nH]1 [Compound B-108] | 410 | 341 | 27 | 340
4 | Cc1ccc(Oc2nc3nc(-c4ccc(N5CCOCC5)cc4)c(Cl)cc3[nH]2)cn1 [Compound B-119] | 240 | 242 | 220 | 265
5 | Cc1ccc(Oc2nc3cc(Cl)c(-c4ccc(-c5ccccc5O)cc4)nc3[nH]2)cc1C(=O)O [Compound C-4] | 4.3 | 292 | 0.42 | 355
6 | Cc1ccc(Oc2nc3nc(-c4ccc(N5CCOCC5)cc4)c(Cl)cc3[nH]2)cc1C(N)=O [Compound C-12] | 130 | 293 | 140 | 256
7 | O=C(O)C1(c2ccc(Oc3nc4nc(-c5ccc(N6CCCC6)cc5)c(Cl)cc4[nH]3)cc2)CC1 [Compound C-94] | 59 | 325 | 12 | 352
8 | Cc1ncc(Oc2nc3nc(-c4ccc(N5CCOCC5)cc4)c(Cl)cc3[nH]2)cn1 [Compound C-106] | 580 | 290 | 690 | 278
9 | CC(=O)NC(C)(C)c1ccc(Oc2nc3nc(-c4ccc(N5CCC(O)C5)cc4)c(Cl)cc3[nH]2)cc1 [Compound D-49] | 54 | 420 | 3.5 | 263
